The results in this text go back to patent publication US7868013B2, “Cycloalkyl substituted pyrimidinediamine compounds and their uses” (Rigel Pharmaceuticals, Inc., priority 2004, dated 2011).

The structures appear in SMILES notation. Where a name gives a salt, the structure may show the parent alone. Read-outs that look alike come from different tables or passages of the source. Where only a bound is given, the exact number is not on record here.

One assay concerns A549 (lung carcinoma). Kind of assay: In vitro antiproliferation assay, A549 cells (TABLE 1 6 point assay; TABLE 2). It is filed as cell-based. The following applies: Homo sapiens. The protocol:
(§1) Certain compounds were tested against other cell types for their ability to inhibit proliferation in standard antiproliferation assays.

The subject of assay [1] is H1299 (non-small cell lung carcinoma). Description: In vitro antiproliferation assay, H1299 cells (TABLE 1 6 point assay; TABLE 2). The assay is classed as cell-based. The protocol:
as §1

The mark [2] stands for this setting: A549, 6 point assay, A549 cells, read-out: IC50, A549 cells.
[3] abbreviates: Homo sapiens, NCI-H1299, 6 point assay, H1299 cells, read-out: IC50, H1299 cells.
The mark [4] stands for this setting: A549, A549 cells, 6 point assay, read-out: A549, 6pt (IC50, inhibition of proliferation).
[5] abbreviates: Homo sapiens, NCI-H1299, H1299 cells, 6 point assay, read-out: H1299, 6pt (IC50, inhibition of proliferation).
[6] abbreviates: H1299 cells, 6 point assay, read-out: H1299, 6pt (IC50, inhibition of proliferation).

On to `Cc1cc(Nc2ncc(F)c(NC3C4C=CC(C4)C3C(N)=O)n2)ccc1N1CC(C)OC(C)C1` (racemic) [Compound 284, Racemic-(2-exo,3-exo)-N4-(3-aminocarbonylbicyclo[2.2.1]hept-5-en-2-yl)-N2-[4-(2,6-dimethylmorpholino)-3-methylphenyl]-5-fluoro-2,4-pyrimidinediamine], for which the IC50 (in the assay with A549 (lung carcinoma) (setting [2]); in assay [1] (setting [3])) was not above 100 nM in each case.

`Cc1cc(Nc2ncc(F)c(NC3C4C=CC(C4)C3C(N)=O)n2)ccc1N1CC2CC1CC2C` (racemic) [Compound 285, Racemic-(2-exo,3-exo)-N4-(3-aminocarbonylbicyclo[2.2.1]hept-5-en-2-yl)-5-fluoro-N2-[3-methyl-4-(5-methyl-(1S,4S)-2,5-diazabicyclo[2.2.1]heptan-2-yl)]phenyl-2,4-pyrimidinediamine]: the IC50 (in the assay on A549 (lung carcinoma) (setting [2]); in assay [1] (setting [3])) was not above 100 nM in each case.

As to `Cc1cc(Nc2ncc(F)c(N[C@H]3C=CC[C@H]3C(N)=O)n2)ccc1N1CCN(C)CC1` (racemic) [Compound 286, Racemic-cis-N4-(2-aminocarbonylcyclopent-4-en-1-yl)-5-fluoro-N2-[3-methyl-4-(4-methylpiperazin-1-yl)phenyl]-2,4-pyrimidinediamine], the IC50 (in the assay with A549 (lung carcinoma) (setting [2]); in assay [1] (setting [3])) was 100 to 1000 nM throughout.

As to `Cc1cc(Nc2ncc(F)c(N[C@H]3CCC[C@H]3C(N)=O)n2)ccc1N1CCCC1` (racemic) [Compound 287, Racemic-cis-N4-(2-aminocarbonylcyclopent-1-yl)-5-fluoro-N2-[3-methyl-4-(pyrrolidino)phenyl]-2,4-pyrimidinediamine], the IC50 (with A549 (lung carcinoma) (setting [2]); in assay [1] (setting [3])) was 1000 to 10000 nM each time.

With `Cc1cc(Nc2ncc(F)c(NC3C4C=CC(C4)C3C(N)=O)n2)ccc1N1CCCC1` (racemic) [Compound 288, Racemic-(2-exo,3-exo)-N4-(3-aminocarbonylbicyclo[2.2.1]hept-5-en-2-yl)-5-fluoro-N2-[3-methyl-4-(pyrrolidino)phenyl]-2,4-pyrimidinediamine], the IC50 (in the assay on A549 (lung carcinoma) (setting [2]); in assay [1] (setting [3])) was 100 to 1000 nM in each case.

For `Cc1ccc(Nc2ncc(F)c(N[C@H]3CCC[C@H]3C(N)=O)n2)cc1OCC(=O)N1CCN(C)CC1` (racemic) [compound 102, Racemic-cis-N4-(2-aminocarbonylcyclopent-1-yl)-5-fluoro-N2-[4-methyl-3-(4-methylpiperazin-1-yl)carbonylmethyleneoxyphenyl]-2,4-pyrimidinediamine], the IC50 (in the assay with A549 (lung carcinoma) (setting [4]); in assay [1] (setting [5])) was 1000 to 10000 nM each time.

For the compound `Cc1ccc(Nc2ncc(F)c(NC3C4C=CC(C4)C3C(N)=O)n2)cc1OCC(=O)N1CCOCC1` (racemic) [compound 103, Racemic-(2-exo, 3-exo)-N4-(3-aminocarbonylbicyclo[2.2.1]hept-5-en-2-yl)-5-fluoro-N2-[4-methyl-3-(N-morpholinyl)carbonylmethyleneoxyphenyl]-2,4-pyrimidinediamine], the IC50 in the assay on A549 (lung carcinoma) (setting [4]) was 100 to 1000 nM; in assay [1] (setting [5]), not above 100 nM.

Take `Cc1ccc(Nc2ncc(F)c(NC3C4C=CC(C4)C3C(N)=O)n2)cc1OCCN1CCOCC1` (racemic) [compound 104, Racemic-(2-exo, 3-exo)-N4-(3-aminocarbonylbicyclo[2.2.1]hept-5-en-2-yl)-5-fluoro-N2-[4-methyl-3-(N-morpholinyl)-2-ethyleneoxyphenyl]-2,4-pyrimidinediamine]: the IC50 (in the assay on A549 (lung carcinoma) (setting [4]); in assay [1] (setting [5])) was not above 100 nM each time.

With `CNC(=O)COc1cc(Nc2ncc(F)c(N[C@H]3CCC[C@H]3C(N)=O)n2)ccc1C` (racemic) [compound 106, Racemic-cis-N4-(2-aminocarbonylcyclopent-1-yl)-5-fluoro-N2-[4-methyl-3-(N-methylamino)carbonylmethyleneoxyphenyl]-2,4-pyrimidinediamine], the IC50 (in the assay with A549 (lung carcinoma) (setting [4]); in assay [1] (setting [5])) was 1000 to 10000 nM each time.

`Cc1cc(Nc2ncc(F)c(N[C@H]3CCC[C@H]3C(N)=O)n2)ccc1N1CCNCC1` (racemic) [compound 107, Racemic-cis-N4-(2-amino-carbonylcyclopent-1-yl)-5-fluoro-N2-[3-methyl-4-(piperazin-1-yl)phenyl]-2,4-pyrimidinediamine]: the IC50 (with A549 (lung carcinoma) (setting [4]); in assay [1] (setting [5])) was 1000 to 10000 nM in each case.

Regarding `Cc1cc(Nc2ncc(F)c(NC3C4C=CC(C4)C3C(N)=O)n2)ccc1N1CCNCC1` (racemic) [compound 108], the IC50 in the assay with A549 (lung carcinoma) (setting [4]) is more than 10000 nM; in assay [1] (setting [5]) it was 1000 to 10000 nM.

For `Cc1cc(Nc2ncc(F)c(NC3C4C=CC(C4)C3C(N)=O)n2)ccc1N1CCN(CCO)CC1` (racemic) [compound 111], the IC50 (in the assay with A549 (lung carcinoma) (setting [4]); in assay [1] (setting [5])) was not above 100 nM throughout.

On to `CN1CCN(C(=O)c2cc3cc(Nc4ncc(F)c(N[C@H]5CCC[C@H]5C(N)=O)n4)ccc3o2)CC1` (racemic) [compound 130, Racemic-cis-N4-(2-aminocarbonylcyclopent-1-yl)-5-fluoro-N2-[2-(4-methylpiperazin-1-ylcarbonyl)benzofuran-5-yl]-2,4-pyrimidinediamine], for which the IC50 (with A549 (lung carcinoma) (setting [4]); in assay [1] (setting [5])) was 1000 to 10000 nM each time.

Turning to `CN1CCN(Cc2cc3cc(Nc4ncc(F)c(N[C@H]5CCC[C@H]5C(N)=O)n4)ccc3o2)CC1` (racemic) [compound 131, Racemic-cis-N4-(2-aminocarbonylcyclopent-1-yl)-5-fluoro-N2-[2-(4-methylpiperazin-1-ylmethylene)benzofuran-5-yl]-2,4-pyrimidinediamine], the IC50 (with A549 (lung carcinoma) (setting [4]); in assay [1] (setting [5])) was 1000 to 10000 nM in each case.

Consider `COC(=O)CN1CCc2ccc(Nc3ncc(F)c(N[C@H]4CCC[C@H]4C(N)=O)n3)cc2C1` (racemic) [compound 132, Racemic-cis-N4-(2-aminocarbonylcyclopent-1-yl)-5-fluoro-N2-[2-(methoxycarbonylmethylene)-1,2,3,4-tetrahydroisoquin-7-yl]-2,4-pyrimidinediamine], for which the IC50 (in the assay on A549 (lung carcinoma) (setting [4]); in assay [1] (setting [5])) was 100 to 1000 nM each time.

As for `COc1cc(Nc2ncc(F)c(NC3C4C=CC(C4)C3C(N)=O)n2)ccc1S(N)(=O)=O` (racemic) [compound 133, Racemic-(2-exo,3-exo)-N4-(3-aminocarbonylbicyclo[2.2.1]hept-5-en-2-yl)-N2-(4-aminosulfonyl-3-methoxyphenyl)-5-fluoro-2,4-pyrimidinediamine], the IC50 (with A549 (lung carcinoma) (setting [4]); in assay [1] (setting [5])) was 1000 to 10000 nM in each case.

In the case of `CN1CCN(CCn2ccc3cc(Nc4ncc(F)c(NC5C6C=CC(C6)C5C(N)=O)n4)ccc32)CC1` (racemic) [compound 134, Racemic-(2-exo,3-exo)-N4-(3-aminocarbonylbicyclo[2.2.1]hept-5-en-2-yl)-5-fluoro-N2-{1-[2-(4-methylpiperazin-1-yl)ethyl]indol-5-yl}-2,4-pyrimidinediamine], the IC50 (in the assay on A549 (lung carcinoma) (setting [4]); in assay [1] (setting [5])) was 100 to 1000 nM each time.

Regarding `Cc1cc(Nc2ncc(F)c(N[C@H]3[C@@H](C(N)=O)[C@@H]4C=C[C@H]3C4)n2)ccc1N1CCN(C)CC1` [compound 139, (1R,2R,3S,4S)-N4-(3-Aminocarbonylbicyclo[2.2.1]hept-5-en-2-yl)-5-fluoro-N2-[3-methyl-4-(4-methylpiperazin-1-yl)phenyl]-2,4-pyrimidinediamine Trifluoroacetic Acid Salt], in assay [1] (setting [6]), the IC50 was not above 100 nM.

In the case of `Cc1cc(Nc2ncc(F)c(N[C@H]3[C@@H](C(N)=O)[C@@H]4C=C[C@H]3C4)n2)ccc1N1CCN(C)CC1` [compound 140, (1R,2R,3S,4S)-N4-(3-Aminocarbonylbicyclo[2.2.1]hept-5-en-2-yl)-5-fluoro-N2-[3-methyl-4-(4-methylpiperazin-1-yl)phenyl]-2,4-pyrimidinediamine Methanesulfonic Acid Salt], the IC50 in assay [1] (setting [6]) was not above 100 nM.

`Cc1cc(Nc2ncc(F)c(N[C@H]3[C@@H](C(N)=O)[C@@H]4C=C[C@H]3C4)n2)ccc1N1CCN(C)CC1` [compound 141, (1R,2R,3S,4S)-N4-(3-Aminocarbonylbicyclo[2.2.1]hept-5-en-2-yl)-5-fluoro-N2-[3-methyl-4-(4-methylpiperazin-1-yl)phenyl]-2,4-pyrimidinediamine Nitric Acid Salt]: in assay [1] (setting [5]), the IC50 was not above 100 nM.

Turning to `Cc1cc(Nc2ncc(F)c(N[C@H]3[C@@H](C(N)=O)[C@@H]4C=C[C@H]3C4)n2)ccc1N1CCN(C)CC1` [compound 142, (1R,2R,3S,4S)-N4-(3-Aminocarbonylbicyclo[2.2.1]hept-5-en-2-yl)-5-fluoro-N2-[3-methyl-4-(4-methylpiperazin-1-yl)phenyl]-2,4-pyrimidinediamine Sulfuric Acid Salt], the IC50 in assay [1] (setting [6]) is not above 100 nM.

Regarding `Cc1cc(Nc2ncc(F)c(N[C@H]3[C@@H](C(N)=O)[C@@H]4C=C[C@H]3C4)n2)ccc1N1CCN(C)CC1` [compound 143, (1R,2R,3S,4S)-N4-(3-Aminocarbonylbicyclo[2.2.1]hept-5-en-2-yl)-5-fluoro-N2-[3-methyl-4-(4-methylpiperazin-1-yl)phenyl]-2,4-pyrimidinediamine (S)- Mandelic Acid Salt], the IC50 in assay [1] (setting [6]) is not above 100 nM.

Consider `Cc1cc(Nc2ncc(F)c(N[C@H]3[C@@H](C(N)=O)[C@@H]4C=C[C@H]3C4)n2)ccc1N1CCN(C)CC1` [compound 144, (1R,2R,3S,4S)-N4-(3-Aminocarbonylbicyclo[2.2.1]hept-5-en-2-yl)-5-fluoro-N2-[3-methyl-4-(4-methylpiperazin-1-yl)phenyl]-2,4-pyrimidinediamine p- Toluenesulfonic Acid Salt], for which the IC50 in assay [1] (setting [6]) was not above 100 nM.
